From patent US11390609B2, “Rho-associated protein kinase inhibitor, pharmaceutical composition comprising same, and preparation method and use thereof” (BEIJING TIDE PHARMACEUTICAL CO., LTD., priority 2017, dated 2022)

Experiments:
[1] = target: ROCK1 (Homo sapiens (Human), UniProt Q13464); test: ROCK1 kinase IC50 assay (biological test method similar to the ROCK2 assay); type: biochemical
Summary of the method: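 HTRF KinEASE-STK S2 assay with the STK-S2 biotinylated substrate and ATP, at 5× working solutions of 1.5 µM each. Kinase reaction with 9-point compound dilutions ran 2 h at room temperature, followed by 1 h streptavidin-XL665/Cryptate detection. The 665/615 nm ratio was normalised to no-compound and no-kinase wells, and IC50 was obtained by curve fitting.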

[2] = target: ROCK2 (Homo sapiens, UniProt O75116); test: ROCK2 kinase IC50 assay (CISBIO HTRF KinEASE-STK S2 kit); type: biochemical; settings: incubated at room temperature for 2 hours
Protocol: The kinase IC50 was determined by a commercialized CISBIO kinase detection kit, HTRF KinEASE-STK S2 kit (62ST2PEC). ROCK2 (01-119) employed in the reaction was purchased from Carna Biosciences.
Before the assay, the following working solutions as needed were formulated with corresponding reagents according to the instruction of the kinase detection kit: 1×kinase buffer, 5×STK-52 substrate working solution (1.5 μM) and 5×ATP working solution (1.5 μM), 5×ROCK2 kinase working solution, 4×Streptavidin-XL665 working solution, and 4×STK-Ab-Cryptate 2 detection solution. Then the assay was performed according to the following procedure.
A solution of a compound at a concentration of 10000 nM was prepared with the 1×kinase buffer containing 2.5% DMSO. Gradient dilution of the solution of the compound was performed with the kinase buffer containing DMSO, so as to obtain solutions of a test compound at 9 different concentrations. In addition to wells of test compounds, a positive well (containing all the reagents except the compound) and a negative well (containing all the reagents except the test compound and kinase) were set. Except for the control wells (positive and negative wells), a solution of a test compound (4 μL) was added to each of the reaction wells, and a solution of 2.5% DMSO was added to the control wells. Then the substrate ([…], 2 μL. 5×STK-S2 substrate working solution) was added to each of the reaction wells. The 5×ROCK2 kinase working solution (2 μL, containing 1.4 ng ROCK2 kinase) was added to each of the reaction wells except for the negative well, the volume of which was made up with the 1×kinase buffer (2 μL). The 5×ATP working solution (2 μL) was added to each of the reaction wells, and the mixtures were incubated at room temperature for 2 hours. After the kinase reaction was complete, the 4×Streptavidin-XL665 working solution was added to each of the reaction wells, the solutions were mixed, followed by immediate addition of the 4×STK-Ab-Cryptate 2 detection solution (5 μL), and the mixtures were incubated at room temperature for 1 hour. The fluorescence signal was read on ENVISION (Perkinelmer) (excitation wavelength: 320 nm, and emission wavelength: 665 nm and 615 nm). The inhibitory rate in each well was calculated based on the fluorescence intensity value: ER (Emission Ratio)=(fluorescence intensity at 665 nm/fluorescence intensity at 615 nm); inhibitory rate=(ERpositive−ERtest compound)/(ERpositive−ERnegative)*100%. Curves were plotted and fitted to obtain the median inhibitory concentration (IC50) of each teat compound with the PRISM 5.0 software.

Chain of ROCK1 (Q13464 whole entry, species assumed): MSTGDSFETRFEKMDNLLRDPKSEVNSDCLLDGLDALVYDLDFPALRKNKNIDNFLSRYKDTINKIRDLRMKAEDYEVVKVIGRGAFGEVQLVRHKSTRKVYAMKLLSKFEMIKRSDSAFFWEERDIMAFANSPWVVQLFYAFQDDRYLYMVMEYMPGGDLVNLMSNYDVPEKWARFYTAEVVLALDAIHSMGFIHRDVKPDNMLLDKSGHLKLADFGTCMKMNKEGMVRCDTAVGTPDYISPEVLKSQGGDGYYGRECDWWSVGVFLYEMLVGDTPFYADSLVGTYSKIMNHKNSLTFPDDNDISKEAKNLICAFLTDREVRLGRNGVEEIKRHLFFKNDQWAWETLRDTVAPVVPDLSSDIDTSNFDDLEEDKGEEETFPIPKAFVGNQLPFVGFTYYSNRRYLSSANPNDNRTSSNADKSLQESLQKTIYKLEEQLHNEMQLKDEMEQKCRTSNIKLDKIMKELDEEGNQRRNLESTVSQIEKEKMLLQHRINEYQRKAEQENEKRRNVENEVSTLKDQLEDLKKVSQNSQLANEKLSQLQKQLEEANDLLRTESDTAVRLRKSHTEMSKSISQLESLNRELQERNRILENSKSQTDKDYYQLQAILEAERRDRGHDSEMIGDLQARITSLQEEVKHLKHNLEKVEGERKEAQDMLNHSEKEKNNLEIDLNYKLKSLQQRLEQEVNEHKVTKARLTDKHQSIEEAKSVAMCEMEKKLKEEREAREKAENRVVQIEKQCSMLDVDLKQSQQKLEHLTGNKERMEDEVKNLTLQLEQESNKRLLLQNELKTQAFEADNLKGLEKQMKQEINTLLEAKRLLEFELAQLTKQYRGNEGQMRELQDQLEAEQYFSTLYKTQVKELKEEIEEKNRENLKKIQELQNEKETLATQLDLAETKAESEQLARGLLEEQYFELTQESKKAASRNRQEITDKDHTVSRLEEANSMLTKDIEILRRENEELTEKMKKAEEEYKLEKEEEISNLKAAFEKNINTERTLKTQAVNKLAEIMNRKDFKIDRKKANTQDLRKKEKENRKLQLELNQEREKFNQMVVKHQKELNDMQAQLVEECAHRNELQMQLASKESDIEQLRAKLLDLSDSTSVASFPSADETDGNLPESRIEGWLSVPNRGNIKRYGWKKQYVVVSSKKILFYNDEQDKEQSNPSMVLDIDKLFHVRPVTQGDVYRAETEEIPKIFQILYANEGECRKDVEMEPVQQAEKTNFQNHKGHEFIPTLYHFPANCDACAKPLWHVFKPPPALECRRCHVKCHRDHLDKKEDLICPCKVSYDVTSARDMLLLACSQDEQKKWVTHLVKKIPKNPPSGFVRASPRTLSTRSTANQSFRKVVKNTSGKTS

| IC50 [1] [µM] | IC50 [2] [µM] | Compound |
| --- | --- | --- |
| > 10 | 0.011 | O=C(c1cc2ccc(-c3nccc(Nc4ccc(-c5cn[nH]c5)cc4)n3)cc2[nH]1)N1CCC(F)(F)C1 [TDI01463, (6-(4-((4-(1H-pyrazol-4-yl)phenyl)amino)pyrimidin-2-yl)-1H-indol-2-yl)(3,3-difluoropyrrolidin-1-yl)methanone] |
| 0.592 | 0.018 | O=C(c1cc2ccc(-c3nccc(Nc4ccc(-c5cn[nH]c5)cc4)n3)cc2[nH]1)N1CCC(F)C1 (stereo not shown) [TDI01473, (6-(4-((4-(1H-pyrazol-4-yl)phenyl)amino)pyrimidin-2-yl)-1H-indol-2-yl)(3-fluoropyrrolidin-1-yl)methanone] |
| 1.13 | 0.047 | O=C(c1cc2ccc(-c3nccc(Nc4ccc(-c5cn[nH]c5)cc4)n3)cc2[nH]1)N1C[C@@H](F)[C@@H](F)C1 [TDI01477, (6-(4-((4-(1H-pyrazol-4-yl)phenyl)amino)pyrimidin-2-yl)-1H-indol-2-yl)((3S,4R)-3,4-difluoropyrrolidin-1-yl)methanone] |
| 3.99 | 0.276 | O=C(c1cc2ccc(-c3nccc(Nc4ccc(-c5cn[nH]c5)cc4)n3)cc2[nH]1)N1CCC(F)(F)CC1 [TDI01485, (6-(4-((4-(1H-pyrazol-4-yl)phenyl)amino)pyrimidin-2-yl)-1H-indol-2-yl)(4,4-difluoropiperidin-1-yl)methanone] |
| 5.04 | 0.193 | O=C(NC1CC(F)C1)c1cc2ccc(-c3nc(Nc4ccc(-c5cn[nH]c5)cc4)c4sccc4n3)cc2[nH]1 (stereo not shown) [TDI01487, 6-(4-((4-(1H-pyrazol-4-yl)phenyl)amino)thieno [3,2-d]pyrimidin-2-yl)-N-(3-fluorocyclobutyl)-1H-indole-2-carboxamide] |
| 2.25 | 0.081 | O=C(c1cc2ccc(-c3nccc(Nc4ccc(-c5cn[nH]c5)cc4)n3)cc2[nH]1)N1CC2C(C1)C2(F)F (stereo not shown) [TDI01490, (6-(4-((4-(1H-pyrazol-4-yl)phenyl)amino)pyrimidin-2-yl)-1H-indol-2-yl)(6,6-difluoro-3-azabicyclo[3.1.0]hexan-3-yl)methanone] |
| > 10 | 0.319 | O=C(c1cc2ccc(-c3nccc(Nc4ccc(-c5cn[nH]c5)cc4)n3)cc2[nH]1)N1CCS(=O)(=O)CC1 [TDI01497, (6-(4-((4-(1H-pyrazol-4-yl)phenyl)amino)pyrimidin-2-yl)-1H-indol-2-yl)(1,1-dioxidothiomorpholino) methanone] |
| 5.67 | 0.209 | Cn1c(C(=O)N2CCC(O)(C(F)(F)F)C2)cc2ccc(-c3nccc(Nc4ccc(-c5cn[nH]c5)cc4)n3)cc21 (stereo not shown) [TDI01505, (6-(4-((4-(1H-pyrazol-4-yl)phenyl)amino)pyrimidin-2-yl)-1-methyl-1H-indol-2-yl) (3-hydroxy-3-(trifluoromethyl)pyrrolidin-1-yl)methanone] |
| 7.3 | 0.295 | Cn1c(C(=O)N2CCC(C(F)(F)F)C2)cc2ccc(-c3nccc(Nc4ccc(-c5cn[nH]c5)cc4)n3)cc21 (stereo not shown) [TDI01506, (6-(4-((4-(1H-pyrazol-4-yl)phenyl)amino)pyrimidin-2-yl)-1-methyl-1H-indol-2-yl)(3-(trifluoromethyl)pyrrolidin-1-yl) methanone] |
| 6.84 | 0.113 | Cn1c(C(=O)N2CCC(F)(F)C2)cc2ccc(-c3nccc(Nc4ccc(-c5cn[nH]c5)cc4)n3)cc21 [TDI01507, (6-(4-((4-(1H-pyrazol-4-yl)phenyl)amino)pyrimidin-2-yl)-1-methyl-1H-indol-2-yl)(3,3-difluoropyrrolidin-1-yl)methanone] |
| > 10 | 0.159 | Cn1c(C(=O)N2CC(F)(F)C2)cc2ccc(-c3nc(Nc4ccc(-c5cn[nH]c5)cc4)c4sccc4n3)cc21 [TDI01508, (6-(4-((4-(1H-pyrazol-4-yl)phenyl)amino)thieno[3,2-d]pyrimidin-2-yl)-1-methyl-1H-indol-2-yl)(3,3-difluoroazetidin-1-yl)methanone] |
| 3.63 | 0.022 | Cn1c(C(=O)N2CC3C(C2)C3(F)F)cc2ccc(-c3nccc(Nc4ccc(-c5cn[nH]c5)cc4)n3)cc21 (stereo not shown) [TDI01512, (6-(4-((4-(1H-pyrazol-4-yl)phenyl)amino)pyrimidin-2yl)-1-methyl-1H-indol-2-yl)(6,6-difluoro-3-azabicyclo[3.1.0]hexan-3-yl)methanone] |
| > 10 | 0.092 | CC(=O)C1CN(C(=O)c2cc3ccc(-c4nccc(Nc5ccc(-c6cn[nH]c6)cc5)n4)cc3n2C)C1 [TDI01517, 1-(1-(6-(4-((4-(1H-pyrazol-4-yl)phenyl)amino)pyrimidin-2-yl)-1-methyl-1H-indole-2-caibonyl)azetidin-3-yl)ethan-1-one] |

Continued, compound first:

| Compound | IC50 [1] [µM] | IC50 [2] [µM] |
| --- | --- | --- |
| CC1(C#N)CN(C(=O)c2cc3ccc(-c4nccc(Nc5ccc(-c6cn[nH]c6)cc5)n4)cc3[nH]2)C1 [TDI01461, 1-(6-(4-((4-(1H-pyrazol-4-yl)phenyl)amino)pyrimidin-2-yl)-1H-indole-2-carbonyl)-3-methylazetidine-3-carbonitrile] | 4.53 | 0.14 |
| O=C(c1cc2ccc(-c3nccc(Nc4ccc(-c5cn[nH]c5)cc4)n3)cc2[nH]1)N1CCC2(CCN2)CC1 [TDI01464, (6-(4-((4-(1H-pyrazol-4-yl)phenyl)amino)pyrimidin-2-yl)-1H-indol-2-yl)(1,7-diazaspiro[3.5]nonan-7-yl)methanone] | 2.28 | 0.175 |
| CS(=O)(=O)C1CN(C(=O)c2cc3ccc(-c4nccc(Nc5ccc(-c6cn[nH]c6)cc5)n4)cc3[nH]2)C1 [TDI01465, (6-(4-((4-(1H-pyrazol-4-yl)phenyl)amino)pyrimidin-2-yl)-1H-indol-2-yl)(3-(methylsulfonyl)azetidin-l-yl)methanone] | > 10 | 0.398 |
| O=C(c1cc2ccc(-c3nc(Nc4ccc(-c5cn[nH]c5)cc4)c4sccc4n3)cc2[nH]1)N1CC(F)(F)C1 [TDI01472, (6-(4-((4-(1H-pyrazol-4-yl)phenyl)amino)thieno [3,2-d]pyrimidin-2-yl)-1H-indol-2-yl)(3,3-difluoroazetidin-1-yl)methanone] | > 10 | 0.174 |
| O=C(c1cc2ccc(-c3nccc(Nc4ccc(-c5cn[nH]c5)cc4)n3)cc2[nH]1)N1CCC2(C1)CC2(F)F (stereo not shown) [TDI01486, (6-(4-((4-(1H-pyrazol-4-yl)phenyl)amino)pyrimidin-2-yl)-1H-indol-2-yl)(1,1-difluoro-5-azaspiro[2.4]heptan-5-yl)methanone] | 3 | 0.185 |
| O=C(c1cc2ccc(-c3nccc(Nc4ccc(-c5cn[nH]c5)cc4)n3)cc2[nH]1)N1CC(=NO)C1 [TDI01498, (6-(4-((4-(1H-pyrazol-4-yl)phenyl)amino)pyrimidin-2-yl)-1H-indol-2-yl)(3-(hydroxyimino)azetidin-1-yl)methanone] | > 10 | 0.415 |
| N#CC1CN(C(=O)c2cc3ccc(-c4nccc(Nc5ccc(-c6cn[nH]c6)cc5)n4)cc3s2)C1 [TDI01500, 1-(6-(4-((4-(1H-pyrazol-4-yl)phenyl)-amino)-pyrimidin-2-yl)benzo[b]-thiophene-2-carbonyl)-azetidine-3-carbonitrile] | > 10 | 0.013 |
| Cn1c(C(=O)N2CCC3(C2)CC3(F)F)cc2ccc(-c3nccc(Nc4ccc(-c5cn[nH]c5)cc4)n3)cc21 (stereo not shown) [TDI01513, (6-(4-{(4-(1H-pyrazol-4-yl)phenyl)amino)pyrimidin-2-yl)-1-methyl-1H-indol-2-yl)(1,1-difluoro-5-azaspiro[2.4]heptan-5-yl)methanone] | 7.42 | 0.269 |
| Cn1c(C(=O)N2C[C@@H](F)[C@@H](F)C2)cc2ccc(-c3nccc(Nc4ccc(-c5cn[nH]c5)cc4)n3)cc21 [TDI01514, (6-(4-((4-(1H-pyrazol-4-yl)phenyl)amino)pyrimidin-2-yl)-1-methyl-1H-indol-2-yl) ((3S,4R)-3,4-difluoropyrrolidin-1-yl)methanone] | 2.73 | 0.049 |
| Cn1c(C(=O)N2CC(=CC#N)C2)cc2ccc(-c3nccc(Nc4ccc(-c5cn[nH]c5)cc4)n3)cc21 [TDI01515, 2-(1-(6-(4-((4-(1H-pyrazol-4-yl)phenyl)amino)pyrimidin-2-yl)-1-methyl-1H-indole-2-carbonyl)azetidin-3-ylidene) acetonitrile] | 6.86 | 0.11 |
